In data set [1] the target is T1, Hv1 WT (Homo sapiens, UniProt Q96D96).
T1 sequence (Q96D96 1-273): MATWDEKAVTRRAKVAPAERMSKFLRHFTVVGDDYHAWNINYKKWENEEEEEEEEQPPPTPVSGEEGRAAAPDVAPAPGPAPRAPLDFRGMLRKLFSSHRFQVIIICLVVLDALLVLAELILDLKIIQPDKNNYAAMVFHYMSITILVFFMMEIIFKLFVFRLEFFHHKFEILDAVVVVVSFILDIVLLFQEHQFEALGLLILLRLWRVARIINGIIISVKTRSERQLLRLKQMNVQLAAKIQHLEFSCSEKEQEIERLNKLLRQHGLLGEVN
Format: cell-based. Particulars: for IC50: IC50 ± SE, inside-out patch, +120 mV, pHin = pHout = 6.0; for Inhibition of Hv1 WT (comparison of potency): compounds tested at 50 µM, Fig. 5 E.

The target in a further data set is T2, Hv1 F150A (Homo sapiens, UniProt Q96D96, F150A).
T2 sequence (Q96D96 1-273 F150A): T1 sequence (Q96D96 1-273) with F150A
Briefly: Inhibition of proton currents, inside-out patch clamp, Hv1 F150A. Format: cell-based. (In general: Patch clamp records ionic current or voltage across a cell membrane.)

The nature of data set [2]: Solubility in recording solution. The data set is classed as physicochemical. The following applies: concentrations >1 mM.
Data set [3] concerns the target T1, Hv1 WT. The following applies: dimeric Hv1; ref Hong et al., 2015; cited from earlier work.

Substitutions are numbered along the chain they refer to. Like-named read-outs stand apart in the source and are kept apart here.

In the case of `Nc1nc2cc(F)ccc2[nH]1` [ABIFβ, 6-fluoro-1H-1,3-benzodiazol-2-amine], the values for the half-maximal inhibitory concentration (IC50) at Hv1 WT [1] (Hv1 WT) and against Hv1 F150A were 312 ± 17 µM and 0.013 ± 0.001 µM, respectively.
Regarding `Cc1[nH]c(N)nc1/C=C/C(=O)c1cc(F)cc(F)c1.Cl` [HIFEN, (2E)-3-(2-amino-5-methyl-1H-imidazol-4-yl)-1-(3,5-difluorophenyl)prop-2-en-1-one hydrochloride], the “h ± SE (Hill coefficient)” value on Hv1 WT [1] (Hv1 WT (dimeric), fit with Hill equation) is roughly 1.5. The “Inhibition of Hv1 WT (comparison of potency)” value at Hv1 WT [1] (50 µM) is reported as “slightly more potent than HIF”.
On to `Nc1nc2c(F)c(F)c(F)cc2[nH]1` [ABIF3, 4,5,6-trifluoro-1H-1,3-benzodiazol-2-amine], for which the “Solubility under tested conditions” value in data set [2] was “not soluble at higher concentrations”. In addition, the IC50 (in general, the concentration at which inhibition is half-maximal) turned out to be 699 ± 45 µM at Hv1 WT [1] (Hv1 WT) and 0.093 ± 0.006 µM at Hv1 F150A.
Take `Cc1[nH]c(N)nc1CCC(=O)c1ccccc1.Cl` [HIFNF, 3-(2-amino-5-methyl-1H-imidazol-4-yl)-1-phenylpropan-1-one hydrochloride]: the “IC50,ABI/IC50,HIFNF” value is recorded as roughly 7.7 at Hv1 WT [1] (Hv1 WT) and roughly 0.05 against Hv1 F150A (Hv1 F150A).
In the case of `Nc1nc2ccccc2[nH]1` [ABI, 2-aminobenzimidazole], the values for the IC50 against Hv1 WT [1] (Hv1 WT) and against Hv1 F150A were 553 ± 43 µM and 0.018 ± 0.001 µM, respectively. Further, at Hv1 F150A (ABI at 100 nM versus ABTA at 500 nM), the “Inhibition of Hv1 F150A (comparison with ABTA)” value is given as “much larger inhibition than ABTA”. The “Inhibition of Hv1 F150A” value on Hv1 F150A (at 500 nM) is “saturated”.
On to `Nc1nc2c(F)cccc2[nH]1` [ABIFα, 4-fluoro-1H-1,3-benzodiazol-2-amine], for which the figures for the IC50 against Hv1 WT [1] (Hv1 WT) and at Hv1 F150A were 729 ± 56 µM and 0.04 ± 0.001 µM, respectively.
With `Cc1[nH]c(N)nc1CCC(O)c1cc(F)cc(F)c1.Cl` (stereo not shown) [HIFOH, 3-(2-amino-5-methyl-1H-imidazol-4-yl)-1-(3,5-difluorophenyl)propan-1-ol hydrochloride], on Hv1 WT [1], the “Inhibition of Hv1 WT (comparison of potency)” value is “less effective at reducing the proton current than HIF, HIFNH, and HIFEN”.
Consider `N=C(N)Nc1nc2ccccc2s1` [GBTA, 2-guanidino-benzothiazole], for which the Hill coefficient (in general, the slope factor of the fitted curve) at Hv1 WT [3] is greater than 1.
For the compound `Cc1[nH]c(N)nc1CCC(=O)c1cc(F)cc(F)c1.Cl` [HIF, 3-(2-amino-5-methyl-1H-imidazol-4-yl)-1-(3,5-difluorophenyl)propan-1-one hydrochloride], the “IC50,HIFNF/IC50,HIF” value is given as roughly 5.4 on Hv1 WT [1] (Hv1 WT) and roughly 7.0 at Hv1 F150A (Hv1 F150A). For the same compound, half-maximal inhibition at Hv1 WT [1] (Hv1 WT) (IC50) was put at 13 ± 1 µM.
In the case of `Nc1nc2cc(F)c(F)cc2[nH]1` [ABIF2, 5,6-difluoro-1H-1,3-benzodiazol-2-amine], the IC50 against Hv1 WT [1] (Hv1 WT) was 244 ± 19 µM; at Hv1 F150A, 0.012 ± 0.001 µM.
